ChEMBL document CHEMBL4196001, “Design, semisynthesis, α-glucosidase inhibitory, cytotoxic, and antibacterial activities of p-terphenyl derivatives” (Eur J Med Chem, 2018)
The source made the active and inactive calls. The rule behind the calls is not given here.

Columns and labels:
A549 = test: Cytotoxicity against human A549 cells at 10 uM by SRB assay; format: functional, cell-based
[1] = Cytotoxicity against human Chang cells by SRB assay; format: cell-based
HepG2 = test: Cytotoxicity against human HepG2 cells at 10 uM by SRB assay; format: functional, cell-based
Alpha glucosidase [2] = target: T1, Alpha glucosidase (Homo sapiens, UniProt O43451+P10253+P14410+Q2M2H8); test: Inhibition of human alpha-glucosidase expressed in Saccharomyces cerevisiae using p-nitrophenyl-alpha-D-glucopyranoside as substrate after 15 mins
HeLa = test: Cytotoxicity against human HeLa cells at 10 uM by SRB assay; format: functional, cell-based
Alpha glucosidase [3] = target: T1, Alpha glucosidase; test: Inhibition of human alpha-glucosidase expressed in Saccharomyces cerevisiae at 10 uM using p-nitrophenyl-alpha-D-glucopyranoside as substrate after 15 mins by two-fold serial dilution method
[4] = Cytotoxicity against human Chang cells at 10 uM by SRB assay; format: cell-based

Structure (SMILES) | IC50 (Alpha glucosidase [2]) [µM] | inhibition (Alpha glucosidase [3]) | Activity (A549) | CC50 [1] [µM] | Activity (HepG2) | Activity (HeLa) | Activity [4]
COc1cc(-c2ccc(O)cc2)c(OC)c(O)c1-c1ccc(OCCBr)cc1 | 18 | – | inactive | 54.4 | inactive | inactive | –
COc1cc(-c2ccc(O)cc2)c(OC)c(OC(C)=O)c1-c1ccc(O)cc1 | – | – | inactive | – | inactive | inactive | Non-Toxic
COc1cc(-c2ccc(O)cc2)c(OC)c(O)c1-c1ccc(OC(c2ccccc2)c2ccccc2)cc1 | – | – | inactive | 48.3 | inactive | inactive | –
COc1cc(-c2ccc(O)cc2)c(OC)c(OCCN2CCCC2)c1-c1ccc(O)cc1 | – | – | inactive | – | inactive | inactive | –
COc1cc(-c2ccc(OCCN3CCCC3)cc2)c(OC)c(O)c1-c1ccc(O)cc1 | – | – | inactive | – | inactive | inactive | –
COc1cc(-c2ccc(OCCC(C)C)cc2)c(OC)c(O)c1-c1ccc(O)cc1 | 14.3 | – | inactive | – | inactive | inactive | Non-Toxic
COc1cc(-c2ccc(OC(c3ccccc3)c3ccccc3)cc2)c(OC)c(O)c1-c1ccc(O)cc1 | – | – | inactive | 22.3 | inactive | inactive | –
COc1cc(-c2ccc(OCC(=O)O)cc2)c(OC)c(O)c1-c1ccc(O)cc1 | – | – | inactive | – | inactive | inactive | –
COc1cc(-c2ccc(O)cc2)c(OC)c(OC(=O)c2ccc(F)cc2)c1-c1ccc(O)cc1 | – | – | inactive | – | inactive | inactive | Non-Toxic
COc1c(Cl)c(-c2ccc(O)cc2)c(OC)c(O)c1-c1ccc(O)cc1 | 31.3 | – | inactive | – | inactive | inactive | Non-Toxic

Now from value to compound, other results behind:

IC50 (Alpha glucosidase [2]) [µM] | inhibition (Alpha glucosidase [3]) | Structure (SMILES) | Activity (A549) | CC50 [1] [µM] | Activity (HepG2) | Activity (HeLa) | Activity [4]
– | inactive | COc1cc(-c2ccc(OCCBr)cc2)c(OC)c(OCCBr)c1-c1ccc(OCCBr)cc1 | inactive | – | inactive | inactive | Non-Toxic
83.8 | – | C=CCOc1c(OC)c(-c2ccc(O)cc2)cc(OC)c1-c1ccc(O)cc1 | inactive | – | inactive | inactive | Non-Toxic
16.1 | – | COc1cc(-c2ccc(OCCBr)cc2)c(OC)c(O)c1-c1ccc(O)cc1 | inactive | 95.4 | inactive | inactive | –
26.5 | – | C=CCOc1ccc(-c2cc(OC)c(-c3ccc(O)cc3)c(O)c2OC)cc1 | inactive | – | inactive | inactive | Non-Toxic
22.7 | – | O=C1C=C(c2ccc(O)cc2)C(=O)C(O)=C1c1ccc(O)cc1 | inactive | > 100 | inactive | inactive | –
10.7 | – | CCCOc1ccc(-c2c(OC)cc(-c3ccc(O)cc3)c(OC)c2OCCC)cc1 | inactive | 13.1 | inactive | inactive | –
12.2 | – | COc1cc(-c2ccc(OCc3ccc(-c4ccccc4)cc3)cc2)c(OC)c(O)c1-c1ccc(O)cc1 | inactive | 12.7 | inactive | inactive | –
35.4 | – | COc1cc(-c2ccc(O)cc2)c(OC)c(OC(=O)c2ccco2)c1-c1ccc(O)cc1 | inactive | – | inactive | inactive | Non-Toxic
